Measurements: patent publication US20260364181A1, “AKR1C3 Targeted Heterobifunctional Small Molecule Proteolysis Targeting Chimeras” (BOARD OF REGENTS OF THE UNIVERSITY OF NEBRASKA, priority 2022, published 2026)

How the values were obtained:
[1] = tested on: ARv7; assay: ARv7 protein degradation in 22Rv1 prostate cancer cells (Western blot); type: cell-based
Procedure: (§1) Protein Expression via Western Blot. 22Rv1 cells were seeded in a 6-well plate and incubated overnight. Next day, the cells were treated with varying concentrations of 6 (1 and 10 μM) and 5 (0.5, 1, 10, 50, 100, 250, and 500 nM; 1, 10, and 50 μM) for 24 hours and 5 (1 and 10 nM) at different time points (0, 2, 4, 6, 12, 16, 24, 48, and 72 h). Whole cell lysates were extracted in RIPA lysis buffer containing protease inhibitor and EDTA (Fisher Scientific, PI78440). Protein concentrations in each sample was estimated following BCA assay (Pierce™ BCA protein assay kit, Fisher Scientific, PI23227) as per the manufacturer's protocol. Proteins were standardized using RIPA lysis buffer with Laemelli SDS sample buffer (Thermo Scientific, AAJ61337AC) and heated at 1000C for 15 minutes. The proteins were resolved on a 4-12% premade gel (Invitrogen, NW04120BOX) at 60-90 V in 20× Bolt™ MES SDS running buffer (Fisher Scientific, B000202) and transferred onto a nitrocellulose membrane (Invitrogen, IB23001) using iBlot 2. The membranes were blocked with 2.5% non-fat dry milk (Bio-Rad, 1706404) for 1 h, and the membrane was incubated overnight on a rocking platform at 4 °C with the desired primary antibodies against AKR1C3 (mouse mAb, 1:200, Sigma, A6229), AKR1C1/C2 (rabbit mAb, 1:500, Abcam, ab179448), ARv7 (rabbit mAb, 1:500, Abcam, ab198394) and actin (mouse mAb, 1:1,000, ThermoFisher, MA5-11869). The membranes were washed three times, 10 minutes each, with 1×Tris-buffered saline (TBST, Bio-Rad, 1706435) in 0.1% Tween 20, on a rocking platform wherein they were incubated with rabbit anti-mouse IgG (ThermoFisher, 31450) or goat anti-rabbit IgG (Jackson ImmunoResearch, 111-035-003) secondary antibody (1:1,000) horseradish peroxidase conjugate for 1 hour. […] Bands were quantified by densitometry using ImageJ software and fold change in AKR1C3, AKR1C1/C2, and ARv7 protein expression was determined based on actin controls. […]

[2] = tested on: AKR1C1/C2; assay: AKR1C1/C2 protein degradation in 22Rv1 prostate cancer cells (Western blot); type: cell-based
Procedure: as §1

O=C(O)/C=C/c1cc(C(=O)NCc2ccc(OCc3cn(CCOCCOCC(=O)Nc4cccc5c4CN(C4CCC(=O)NC4=O)C5=O)nn3)cc2)cc(-c2ccccc2)c1 (stereo not drawn) [Compound IA, (E)-3-(5-((4-((1-(2-(2-(2-((2-(2,6-dioxopiperidin-3-yl)-1-oxoisoindolin-4-yl)amino)-2-oxoethoxy)ethoxy)ethyl)-1H-1,2,3-triazol-4-yl)methoxy)benzyl)carbamoyl)-[1,1 ? biphenyl]-3-yl)acrylic acid]
ARv7 expression after proteasome inhibitor pretreatment ([1]; 10 nM, 2 hour pretreatment with MG132 (3 μM), in words): not affected
ARv7 expression ([1]; 10 nM, 72 hours, in words): almost complete amelioration of ARv7 expression
DC50 ([1]; 72 hours, read-out: ARv7 DC50 (half-maximal degradation concentration)): 70 nM
degradation of AKR1C1/C2 compared with AKR1C3 ([2]; 10 nM, in words): to a lesser extent than AKR1C3
degradation of AKR1C1/C2 (in words) ([2]; 10 nM, time-dependent): trend of degradation of AKR1C1/C2 in a time-dependent manner
DC50 ([2]; 72 hours, read-out: AKR1C1/C2 DC50 (half-maximal degradation concentration)): 49 nM
